Assay results published in US4436733A, “4"- And 3-ester derivatives of DMT and DMOT” (Eli Lilly and Company, priority 1982, dated 1984).
Read-outs that look alike come from different tables or passages of the source.

Experiments:
[1] = test system: Streptococcus pyogenes C203; experiment: experimental bacterial infection in mice, ED50; format: in vivo; settings: doses given 1 and 5 hours postinfection, read-out: ED50 (effective dose to protect 50% of the test animals)
Description: The ester derivatives of this invention have shown in vivo antimicrobial activity against experimental bacterial infections caused by gram-positivebacteria. When two doses of test compound were administered to mice with experimental infections, the activity observed was measured as an ED50 value [effective dose in mg/kg to protect 50% of the test animals: see Warren Wick, et al., J. Bacteriol. 81, 233-235 (1961)].
^a mg/kg × 2; doses given 1 and 5 hours postinfection

Mycoplasma gallisepticum = experiment: conventional broth-dilution microtiter test, MIC; format: cell-based
Description: (§1) The MIC's in Table III were determined by standard agar-dilutionassays. The MIC's in Table IV were obtained using a conventional broth-dilution microtiter test.

[2] = test system: Pasteurella multocida 17E; experiment: conventional broth-dilution microtiter test, MIC; format: cell-based; settings: bovine isolate
Description: as §1

Mycoplasma hyorhinis = experiment: conventional broth-dilution microtiter test, MIC; format: cell-based
Description: as §1

[3] = test system: Pasteurella multocida 60A; experiment: conventional broth-dilution microtiter test, MIC; format: cell-based; settings: avian isolate
Description: as §1

Mycoplasma synoviae = experiment: conventional broth-dilution microtiter test, MIC; format: cell-based
Description: as §1

Staphylococcus aureus = experiment: conventional broth-dilution microtiter test, MIC; format: cell-based
Description: as §1

Streptococcus sp. 80 = experiment: conventional broth-dilution microtiter test, MIC; format: cell-based
Description: as §1

[4] = test system: Staphylococcus aureus V41; experiment: standard agar-dilution assay, MIC; format: cell-based; settings: Staphylococcus aureus V41, penicillin resistant strain
Description: as §1
^b Penicillinresistant strain

[5] = test system: Staphylococcus aureus X400; experiment: standard agar-dilution assay, MIC; format: cell-based; settings: Staphylococcus aureus X400, methicillin resistant strain
Description: as §1
^c Methicillinresistant-strain

[6] = test system: Haemophilus influenzae R252; experiment: standard agar-dilution assay, MIC; format: cell-based; settings: Haemophilus influenzae R252, ampicillin resistant strain
Description: as §1
^e Ampicillinresistant strain

[7] = test system: Streptococcus Group D X66; experiment: standard agar-dilution assay, MIC; format: cell-based
Description: as §1

[8] = test system: Streptococcus pneumoniae Park I; experiment: standard agar-dilution assay, MIC; format: cell-based
Description: as §1

[9] = test system: Staphylococcus epidermidis EPI1; experiment: standard agar-dilution assay, MIC; format: cell-based
Description: as §1

[10] = test system: Staphylococcus aureus S13E; experiment: standard agar-dilution assay, MIC; format: cell-based
Description: as §1

Streptococcus Group 9960 = experiment: standard agar-dilution assay, MIC; format: cell-based
Description: as §1

[11] = test system: Staphylococcus aureus X1.1; experiment: standard agar-dilution assay, MIC; format: cell-based
Description: as §1

[12] = test system: Streptococcus pyogenes C203; experiment: standard agar-dilution assay, MIC; format: cell-based
Description: as §1

[13] = test system: Staphylococcus epidermidis EPI2; experiment: standard agar-dilution assay, MIC; format: cell-based
Description: as §1

[14] = test system: Haemophilus influenzae Holt; experiment: standard agar-dilution assay, MIC; format: cell-based; settings: ampicillin sensitive strain
Description: as §1
^d Ampicillinsensitive strain

Structure (SMILES)	ED50 ([1]; C203, mice, oral) [mg/kg]	MIC (minimal inhibitory concentration) (Mycoplasma gallisepticum)	MIC (minimal inhibitory concentration) [2]	MIC (minimal inhibitory concentration) (Mycoplasma hyorhinis)	MIC (minimal inhibitory concentration) [3]	MIC (minimal inhibitory concentration) (Mycoplasma synoviae)	MIC (minimal inhibitory concentration) (Staphylococcus aureus)	MIC (minimal inhibitory concentration) (Streptococcus sp. 80)	MIC (minimal inhibitory concentration) [4]	MIC (minimal inhibitory concentration) [5]	MIC (minimal inhibitory concentration) [6]	MIC (minimal inhibitory concentration) [7]	MIC (minimal inhibitory concentration) [8]	MIC (minimal inhibitory concentration) [9]	MIC (minimal inhibitory concentration) [10]	MIC (minimal inhibitory concentration) (Streptococcus Group 9960)	MIC (minimal inhibitory concentration) [11]	MIC (minimal inhibitory concentration) [12]	MIC (minimal inhibitory concentration) [13]	MIC (minimal inhibitory concentration) [14]	further results
CCC1OC(=O)CC(O)C(C)C(OC2OC(C)C(OC3CC(C)(O)C(OC(C)=O)C(C)O3)C(N(C)C)C2O)C(CC=O)CC(C)C(=O)C=CC(C)=CC1COC(C)=O (stereo not shown) [Compound 2, 23,4"-Di-O-Acetyl-DMT]	117	0.097	6.25	0.78	12.5	0.39	0.78	0.39	0.25	1	16	0.5	0.125	1	0.5	0.5	0.5	0.25	1	16	
CCC(=O)OC1C(C)OC(OC2C(C)OC(OC3C(CC=O)CC(C)C(=O)C=CC(C)=CC(COC(=O)C(Cl)(Cl)Cl)C(CC)OC(=O)CC(O)C3C)C(OC(C)=O)C2N(C)C)CC1(C)O (stereo not shown) [Compound 14, 2'-O-Acetyl-4"-O-Propionyl-23-O-Trichloroacetyl-DMT]		0.39	12.5	6.25	25	0.195	1.56	1.56	1	2	8	2	0.125	0.5	1	1	0.5	0.5	2	8	
CCC(=O)OC1C(C)OC(OC2C(C)OC(OC3C(CC=O)CC(C)C(=O)C=CC(C)=CC(C)C(CC)OC(=O)CC(O)C3C)C(O)C2N(C)C)CC1(C)O (stereo not shown) [Compound 24, 4"-O-Propionyl-DMOT]	71	0.097	6.25	3.12	12.5	0.78	0.78	0.39	1	0.5	8	1	0.125	0.5	0.5	0.5	0.5	0.5	1	8	ED50 ([1]; C203, sc, mice, subcutaneous): 22 mg/kg
CCC1OC(=O)CC(O)C(C)C(OC2OC(C)C(OC3CC(C)(O)C(OC(=O)CC(C)C)C(C)O3)C(N(C)C)C2O)C(CC=O)CC(C)C(=O)C=CC(C)=CC1C (stereo not shown) [Compound 19, 4"-O-Isovaleryl-DMOT]		0.195	6.25	0.39	12.5	0.39	3.12	0.195	1	1	8	1	0.03	1	1	1	1	0.25	1	8	
CCC(=O)OC1CC(=O)OC(CC)C(CO)C=C(C)C=CC(=O)C(C)CC(CC=O)C(OC2OC(C)C(OC3CC(C)(O)C(OC(=O)CC)C(C)O3)C(N(C)C)C2O)C1C (stereo not shown) [Compound 17, 3,4"-Di-O-Propionyl-DMT]		0.097	25	3.12	50	0.195	1.56	0.78	1	1	8	1	0.06	0.5	0.5	1	0.5	0.25	1	16	
CCC1OC(=O)CC(O)C(C)C(OC2OC(C)C(OC3CC(C)(O)C(OC(C)=O)C(C)O3)C(N(C)C)C2OC(C)=O)C(CC=O)CC(C)C(=O)C=CC(C)=CC1COC(C)=O (stereo not shown) [Compound 1, 2',4",23-Tri-O-Acetyl-DMT]	179	0.39	12.5	1.56	25	0.78	3.12	0.78	0.5	2	16	1	0.125	1	1	1	1	0.5	2	16	
CCC(=O)OC1CC(=O)OC(CC)C(C)C=C(C)C=CC(=O)C(C)CC(CC=O)C(OC2OC(C)C(OC3CC(C)(O)C(OC(=O)CC)C(C)O3)C(N(C)C)C2O)C1C (stereo not shown) [Compound 25, 3,4"-Di-O-propionyl-DMOT]	36	0.195	25	1.56	50	0.39	1.56	1.56	1	1	16	1	0.25	1	0.5	1	0.5	0.5	2	32	ED50 ([1]; C203, sc, mice, subcutaneous): > 30 mg/kg
